# Experimental data: paper PMC4806491, “The milk-derived fusion peptide, ACFP, suppresses the growth of primary human ovarian cancer cells by regulating apoptotic gene expression and signaling pathways” (BMC Cancer, 2016)
# Like-named read-outs stand apart in the source and are kept apart here. Positions of bridges follow the written chain, without caps; N, C: chain ends. Residues, ends and D or L forms follow the SMILES beside them.
# Test system: primary ovarian cancer cells
# Conditions: Low dose 5×10^-6 g/L, 48 h
# Procedure: We utilized cDNA microarrays to observe the effect of ACFP on gene expression in primary ovarian cancer cells. Cells were treated with 0 (the vehicle group, as control), 5 × 10^6 g/L and 5 × 10^3 g/L ACFP, respectively, and cultured for 48 h at 37 °C in 5 % CO2. Cells were later digested and collected for total RNA extraction using Trizol. The RNA concentrations and purities were detected with a spectrophotometer. The experiments were performed in duplicate on a single total RNA preparation from the cells. Signal values were presented as the mean value of two replicate experiments. RNA samples were used to generate human whole genome expression profiling microarray (Yeli Bioscience Co., Ltd.; Shanghai, China). RNA was subsequently converted into digoxigenin-labeled complementary RNA and hybridized to a human genome microarray system (Human OneArray Microarray, from Phalanx Biotech Group, Taiwan). The chips were scanned by a GeeDom® LuxScan 10 K microarray scanner. LuxScan3.0 software was used to extract probe fluorescence signals and analyze images. Finally, the original data were processed by normalizing.
compound,measurement,setting,value
CC[C@H](C)[C@@H]1NC(=O)[C@H](CO)NC(=O)[C@@H]2CCCN2C(=O)[C@H](C)NC(=O)CNC(=O)[C@H](CC(C)C)NC(=O)[C@H](CCCCN)NC(=O)[C@H](CCCCN)NC(=O)[C@H](CCSC)NC(=O)[C@H](CCCNC(=N)N)NC(=O)[C@H](Cc2c[nH]c3ccccc23)NC(=O)[C@H](CCC(N)=O)NC(=O)[C@H](Cc2c[nH]c3ccccc23)NC(=O)[C@H](CCCNC(=N)N)NC(=O)[C@H](CCCNC(=N)N)NC(=O)[C@@H](NC(=O)[C@H](CCCCN)NC(=O)[C@@H](N)Cc2ccccc2)CSSC[C@@H](C(=O)N[C@H](C(=O)N[C@@H](CCCNC(=N)N)C(=O)N[C@@H](CCCNC(=N)N)C(=O)N[C@@H](C)C(=O)N[C@@H](Cc2ccccc2)C(=O)NCC(=O)NCC(=O)NCC(=O)NCC(=O)N[C@@H](CO)C(=O)N2CCC[C@H]2C(=O)NCC(=O)N2CCC[C@H]2C(=O)N[C@H](C(=O)N2CCC[C@H]2C(=O)N[C@@H](CC(N)=O)C(=O)O)[C@@H](C)CC)C(C)C)NC(=O)[C@H]([C@@H](C)O)NC1=O [ACFP] (H-FKCRRWQWRMKKLGAPSITCVRRAFGGGGSPGPIPN-OH; disulfide 3-20; N-terminus and C-terminus assumed),GTF2IP1 Ratio (ACFP/control),NM-002970,0.47
same,IGFBP5 Ratio (ACFP/control),NM-003488,0.45
same,MYLK Ratio (ACFP/control),NM-004638,0.33
same,NKX3-1 Ratio (ACFP/control),NM-004824,2.8
same,PLA2G5 Ratio (ACFP/control),NM-005322,0.36
same,POLH Ratio (ACFP/control),NM-005429,0.33
same,PSMA1 Ratio (ACFP/control),NM-005682,0.39
same,STAT5B Ratio (ACFP/control),NM-006777,3.24
same,STAT6 Ratio (ACFP/control),NM-006778,2.06
same,UPP1 Ratio (ACFP/control),NM-007378,0.48
same,TNFSF18 Ratio (ACFP/control),NM-008995,0.49
same,MAP4K4 Ratio (ACFP/control),NM-009448,0.36
same,BTF/BCLAF1 Ratio (ACFP/control),NM-009774,3.25
same,TMEFF1 Ratio (ACFP/control),NM-016522,3.33
same,RAB18 Ratio (ACFP/control),NM-022931,0.30
same,TCF/LEF1 Ratio (ACFP/control),NM-051176,0.36
same,PINX1 Ratio (ACFP/control),NM-054984,0.45
same,RINT-1 Ratio (ACFP/control),NM-060561,0.32
same,C17orf37 Ratio (ACFP/control),NM-084299,0.39
same,ZNF512 Ratio (ACFP/control),NM-084450,0.31
same,AKT1 Ratio (ACFP/control),NM_000207,0.29
same,ARHE Ratio (ACFP/control),NM_000390,2.99
same,BAG1 Ratio (ACFP/control),NM_000573,0.48
same,BAX Ratio (ACFP/control),NM_000581,3.73
same,BCL-xl Ratio (ACFP/control),NM_000598,0.28
same,C1QG Ratio (ACFP/control),NM_000714,2.02
same,CASP3 Ratio (ACFP/control),NM_000836,3.72
same,CCNB1 Ratio (ACFP/control),"NM_000891, cyclinB1",0.30
same,TNFRSF8 Ratio (ACFP/control),"NM_000943, first entry",2.05
same,TNFRSF8 Ratio (ACFP/control),"NM_000943, second entry",2.02
same,CDC25C Ratio (ACFP/control),NM_000995,0.29
same,CDKN1A Ratio (ACFP/control),NM_001026,3.24
same,CDKN1A/p21 Ratio (ACFP/control),"NM_001026, second entry",3.24
same,CKS2 Ratio (ACFP/control),NM_001164,3.67
same,DVL1 Ratio (ACFP/control),NM_001855,3.58
same,GRK4 Ratio (ACFP/control),NM_002868,0.42
same,GRK5 Ratio (ACFP/control),NM_002869,0.47
same,GRK6 Ratio (ACFP/control),NM_002870,0.49
same,GSTM4 Ratio (ACFP/control),NM_002948,2.25
same,GSTM5 Ratio (ACFP/control),NM_002949,3.55
same,IRF7 Ratio (ACFP/control),NM_003665,3.13
same,ITGA5 Ratio (ACFP/control),NM_003678,0.36
same,PKIA Ratio (ACFP/control),NM_005569,2.52
same,MAPK3/ERK1 Ratio (ACFP/control),NM_005595,0.36
same,MAPK8/JNK1 Ratio (ACFP/control),NM_005599,2.04
same,MAPK13/p38 delta Ratio (ACFP/control),NM_005603,2.91
same,PSMB8 Ratio (ACFP/control),NM_005696,2.97
same,TNFRSF1A Ratio (ACFP/control),"NM_007132, first entry",3.50
same,TNFRSF1A Ratio (ACFP/control),"NM_007132, second entry",3.50
same,ZNF12 Ratio (ACFP/control),NM_007559,2.07
same,BAT5 Ratio (ACFP/control),NM_007920,3.66
same,PABPN1 Ratio (ACFP/control),NM_008106,3.71
same,TNFRSF10B Ratio (ACFP/control),NM_008795,2.43
same,STK17B Ratio (ACFP/control),NM_009262,2.01
same,TRAF4 Ratio (ACFP/control),NM_009618,3.34
same,USP34 Ratio (ACFP/control),NM_009736,3.49
same,GOLGA5 Ratio (ACFP/control),NM_009950,2.46
same,SUI1 Ratio (ACFP/control),NM_010209,2.89
same,SPINT2 Ratio (ACFP/control),NM_010653,3.58
same,PIK3R5 Ratio (ACFP/control),NM_023533,0.39
same,CARD10 Ratio (ACFP/control),NM_029775,2.43
same,FLJ39616 Ratio (ACFP/control),NM_051275,3.34
same,GNG12 Ratio (ACFP/control),NM_055970,3.49
same,BCORL1 Ratio (ACFP/control),NM_063035,0.35
same,CARD14 Ratio (ACFP/control),NM_079092,2.13
same,BCL2L14 Ratio (ACFP/control),NM_079370,2.44
same,FLJ13848 Ratio (ACFP/control),NM_079829,3.28
same,SNARK Ratio (ACFP/control),NM_081788,3.08
same,C1QTNF6 Ratio (ACFP/control),"NM_114904, first entry",3.57
same,C1QTNF6 Ratio (ACFP/control),"NM_114904, second entry",3.43
same,LOC441241 Ratio (ACFP/control),NM_441241,3.48
